Here are results for six compounds from patent publication US6274738A, “Carboxamide derivatives having aryl and thiazole rings” (Geron Corporation, priority 1997, dated 2001).

The assay has as its target T1, DNA primase (Homo sapiens, UniProt P49642+P49643).
T1 construct: using a nuclear extract comprising primase activity, as described above; endogenous in cells; host or cells: nuclear extract
Kind of assay: Primase activity assay (incorporation of radioactive dATP on poly(dT) template). The assay is classed as biochemical. The settings on record: approximate concentration at which 50% of the primase enzyme activity was inhibited; determined using the methods described herein; read-out: IC50 (primase-inhibiting properties). The method, then: In the assay, primase was diluted with primase dilution buffer (50% glycerol, 50 mM Tris HCl (pH 8.0) 20 mM KCl, 1 mM EDTA, 1 mM βME) to achieve a selected reaction volume (typically, reactions were carried out in an overall volume of 60 μl). A typical 60 μl reaction volume further included 50 mM Tris HCl (pH 8.0); 20 mM KCl, 200 μg/ml BSA, 4 mM MgCl2, 2 mM fresh DTT, 2 mM rATP, 5 μCi ^32 P (800 Ci/mmol) or 2.5 μCi ^33 P (2,000 Ci/mMol) dATP, 10 μg/ml Poly (dT), and primase and polymerase α.
The recombinant 180 Kd human polymerase ax protein was isolated from a bacculovirally transduced SF9 cell as described in Wang et al. (1995) Methods in Enzymology 262: 77-84. Typically, about 0.05 μg of p180 and about 0.025 μg of a 1:1 mixture of p49/p58 primase subunits were used per reaction.
Several reactions were typically set up in parallel, although a single reaction can also be assessed. For example, a Zymate XP (Zymark Corporation; Hopkinton, Mass.) automated robot using Microlab 2200 (Hamilton; Reno, Nev.) pipeting station to transfer parallel samples to 96 well microtiter plate was used to set up several parallel simultaneous reactions.
Parallel reactions were incubated for 30 minutes at 30° C. 15 μl of each reaction was spotted into one well on a Unifilter plate (Whatman GF/C glass fiber filter bottom), typically using the automated system described. The filters were then air dried. The Unifilter plate was placed onto the vacuum chamber of a dot blot apparatus, and 200 μl of ice cold 5% TCA/20 mM sodium pyrophosphate wash was added to each well, and vacuum applied. Each filter was washed three times. 100 μl of an ice cold 70% ethanol wash was added then added to each well, and vacuum applied. The ethanol wash was repeated, and the filters allowed to air dry. Excess fluid was removed from the bottom of the plate. The bottom of the plate was sealed with a transparent sealer, and 50 μl of Microscint-20 scintillation fluid was added to each well, e.g., using a Biomek1000® (Beckman Instruments; Dallas, Tex.). The top of the plate was sealed with TOPSEAL-S® Microplate Heat Sealing Film and CPM were counted for each well using a topcount microplate scintillation counter (Packard; Downers Grove, Ill.) or Trilux Microbeta 1450 (Wallac; Gaithersburg, Md.).
An assay similar to Example 2 was also developed to measure primase activity. Although the assay is described below with reference to using a nuclear extract as the source for primase activity, one of skill will recognize that the assay can easily be adapted for purified or recombinant primase. Examples 1 and 2 provide a description of the buffers, nuclear extracts, etc.
The reagents were combined into one or more separate reaction mixtures, with the poly dT, nuclear extract, and ^32 dATP being added just before use. The reaction mixtures were incubated for 1 hour at 37° C. The reactions were spotted onto filters on a unifilter plate and treated as described in Example 2.
The primase modulator compounds show in FIG. 1 were determined to modulate primase activity in the assays shown above, using a nuclear extract comprising primase activity, as described above.
For primary screening, compounds were added at the beginning of the reaction with all reagents as described above. Compounds were tested at a concentration of 100 μM. Compounds were tested in duplicate reactions.
This concentration information was used to determine the approximate IC50 for the primase modulating agents described in FIG. 1. The extract/enzyme preparation for primase modulating agents was preincubated with the compound for 30 min at 37° C. prior to addition of the remaining reagents.
The example modulators are primase inhibitors. The IC50 s for the compounds indicated in FIG. 1 was the approximate concentration of the modulator at which 50% of the primase enzyme activity in a reaction mixture was inhibited by the modulator.

T1 sequence (P49642 whole entry): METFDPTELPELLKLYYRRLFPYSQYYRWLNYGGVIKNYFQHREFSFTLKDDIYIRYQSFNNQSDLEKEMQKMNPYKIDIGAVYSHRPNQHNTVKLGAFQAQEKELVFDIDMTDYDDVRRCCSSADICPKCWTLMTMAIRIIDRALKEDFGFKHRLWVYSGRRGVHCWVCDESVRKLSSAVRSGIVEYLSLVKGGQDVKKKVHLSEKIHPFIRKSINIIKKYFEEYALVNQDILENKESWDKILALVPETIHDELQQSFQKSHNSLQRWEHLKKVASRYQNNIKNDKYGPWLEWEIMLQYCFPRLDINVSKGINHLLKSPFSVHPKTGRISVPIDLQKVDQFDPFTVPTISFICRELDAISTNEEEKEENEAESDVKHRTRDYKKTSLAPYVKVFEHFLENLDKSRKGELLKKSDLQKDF
T1 sequence (P49643 whole entry): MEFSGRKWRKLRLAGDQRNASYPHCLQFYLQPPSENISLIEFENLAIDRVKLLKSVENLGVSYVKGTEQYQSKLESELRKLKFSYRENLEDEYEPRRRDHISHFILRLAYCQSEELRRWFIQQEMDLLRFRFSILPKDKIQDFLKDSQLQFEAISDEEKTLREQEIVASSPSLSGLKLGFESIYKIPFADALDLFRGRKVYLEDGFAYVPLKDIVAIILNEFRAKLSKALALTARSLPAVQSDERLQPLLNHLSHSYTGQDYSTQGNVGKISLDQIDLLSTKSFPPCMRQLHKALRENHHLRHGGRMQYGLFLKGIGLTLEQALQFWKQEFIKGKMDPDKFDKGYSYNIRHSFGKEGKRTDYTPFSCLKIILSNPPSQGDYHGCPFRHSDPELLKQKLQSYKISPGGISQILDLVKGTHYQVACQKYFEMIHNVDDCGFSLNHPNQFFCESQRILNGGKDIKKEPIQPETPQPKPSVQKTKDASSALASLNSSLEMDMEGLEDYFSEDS
T1 sequence (P09884 whole entry partner): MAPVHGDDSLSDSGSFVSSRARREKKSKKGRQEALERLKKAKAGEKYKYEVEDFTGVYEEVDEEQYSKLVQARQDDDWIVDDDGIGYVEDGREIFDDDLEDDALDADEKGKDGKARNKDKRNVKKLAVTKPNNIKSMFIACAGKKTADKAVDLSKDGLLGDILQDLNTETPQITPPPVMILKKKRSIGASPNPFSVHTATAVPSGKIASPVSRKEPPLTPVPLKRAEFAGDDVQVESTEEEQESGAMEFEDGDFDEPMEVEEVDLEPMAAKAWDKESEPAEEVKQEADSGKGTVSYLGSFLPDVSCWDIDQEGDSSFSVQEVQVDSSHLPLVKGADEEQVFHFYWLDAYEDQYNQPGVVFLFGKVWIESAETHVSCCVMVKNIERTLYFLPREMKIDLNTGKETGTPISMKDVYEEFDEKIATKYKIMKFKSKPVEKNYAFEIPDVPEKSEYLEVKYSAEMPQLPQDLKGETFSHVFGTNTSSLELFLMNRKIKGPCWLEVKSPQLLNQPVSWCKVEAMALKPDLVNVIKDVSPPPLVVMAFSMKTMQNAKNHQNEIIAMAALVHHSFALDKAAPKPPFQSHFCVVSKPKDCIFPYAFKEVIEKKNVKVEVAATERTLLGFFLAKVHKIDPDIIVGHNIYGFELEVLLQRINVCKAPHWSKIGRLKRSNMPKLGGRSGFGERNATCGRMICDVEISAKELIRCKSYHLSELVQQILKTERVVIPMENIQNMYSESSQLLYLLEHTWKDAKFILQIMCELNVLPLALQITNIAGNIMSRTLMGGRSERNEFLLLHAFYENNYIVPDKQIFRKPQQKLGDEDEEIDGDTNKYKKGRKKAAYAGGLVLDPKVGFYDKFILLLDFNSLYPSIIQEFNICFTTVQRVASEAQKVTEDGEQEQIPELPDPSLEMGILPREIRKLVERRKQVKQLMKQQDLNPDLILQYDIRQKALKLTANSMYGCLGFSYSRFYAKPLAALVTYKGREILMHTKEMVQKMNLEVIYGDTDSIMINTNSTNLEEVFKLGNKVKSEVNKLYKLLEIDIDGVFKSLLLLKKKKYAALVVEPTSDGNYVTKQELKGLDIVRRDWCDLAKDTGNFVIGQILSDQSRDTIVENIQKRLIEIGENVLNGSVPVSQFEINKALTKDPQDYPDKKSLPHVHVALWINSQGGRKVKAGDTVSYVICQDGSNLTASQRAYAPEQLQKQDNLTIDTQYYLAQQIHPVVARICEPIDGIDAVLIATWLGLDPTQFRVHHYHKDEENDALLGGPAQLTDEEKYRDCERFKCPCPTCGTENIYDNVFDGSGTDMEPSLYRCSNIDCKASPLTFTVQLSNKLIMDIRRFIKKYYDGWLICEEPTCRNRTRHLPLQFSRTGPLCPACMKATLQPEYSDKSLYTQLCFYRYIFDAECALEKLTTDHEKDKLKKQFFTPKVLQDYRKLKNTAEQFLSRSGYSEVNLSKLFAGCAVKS
T1 sequence (Q14181 whole entry partner): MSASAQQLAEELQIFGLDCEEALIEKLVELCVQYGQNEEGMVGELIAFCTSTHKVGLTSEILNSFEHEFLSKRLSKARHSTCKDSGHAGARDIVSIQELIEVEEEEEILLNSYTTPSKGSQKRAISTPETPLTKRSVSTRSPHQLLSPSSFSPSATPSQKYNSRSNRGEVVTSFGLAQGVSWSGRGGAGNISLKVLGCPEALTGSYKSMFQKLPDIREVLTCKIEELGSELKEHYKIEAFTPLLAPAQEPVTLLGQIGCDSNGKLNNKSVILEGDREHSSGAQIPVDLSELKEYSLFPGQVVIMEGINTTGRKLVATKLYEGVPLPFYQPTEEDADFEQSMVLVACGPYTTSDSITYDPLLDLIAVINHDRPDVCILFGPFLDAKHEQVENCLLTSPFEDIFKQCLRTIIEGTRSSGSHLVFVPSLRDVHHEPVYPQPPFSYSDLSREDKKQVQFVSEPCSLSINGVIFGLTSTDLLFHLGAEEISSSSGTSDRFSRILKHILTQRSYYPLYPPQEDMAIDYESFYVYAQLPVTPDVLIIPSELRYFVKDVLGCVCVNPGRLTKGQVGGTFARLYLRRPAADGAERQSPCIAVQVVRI

The IC50 is the concentration needed to halve the response being measured. In the case of `O=C(Nc1ccccc1Cl)c1csc(-c2cccnc2)n1` [Compound 2], the IC50 is roughly 30 µM.
As for `O=C(Nc1cccc(C(F)(F)F)c1)c1csc(-c2ccncc2)n1` [Compound 4], the figure is roughly 37 µM.
As for `O=C(Nc1ccc(C(F)(F)F)cc1)c1csc(-c2ccncc2)n1` [Compound 5], the figure is roughly 44 µM; as for `O=C(Nc1ccc(Cl)cc1)c1csc(-c2ccncc2)n1` [Compound 6], roughly 37 µM; as for `O=C(Nc1ccc(Br)cc1)c1csc(-c2ccncc2)n1` [Compound 7], roughly 63 µM.
As to `O=C(Nc1ccc(F)cc1F)c1csc(-c2ccncc2)n1` [Compound 8], the 50% inhibitory concentration (IC50) is roughly 19 µM.
